Results: ChEMBL document CHEMBL4196028, “Synthesis and biological evaluation of 20-epi-amino-20-deoxysalinomycin derivatives” (Eur J Med Chem, 2018)

Experiment: physchem
Conditions: n-octanol/water
`CC[C@@H](C(=O)[C@@H](C)[C@@H](O)[C@H](C)[C@@H]1O[C@@H]([C@@H](CC)C(=O)OCC[Si](C)(C)C)CC[C@@H]1C)[C@H]1O[C@]2(C=C[C@H](n3cc(COC(C(F)(F)F)(C(F)(F)F)C(F)(F)F)nn3)[C@]3(CC[C@@](C)([C@H]4CC[C@](O)(CC)[C@H](C)O4)O3)O2)[C@H](C)C[C@@H]1C` showed a logP of 1.95. In the case of `CC[C@@H](C(=O)[C@@H](C)[C@@H](O)[C@H](C)[C@@H]1O[C@@H]([C@@H](CC)C(=O)O)CC[C@@H]1C)[C@H]1O[C@]2(C=C[C@H](NC(=O)OCc3ccccc3)[C@]3(CC[C@@](C)([C@H]4CC[C@](O)(CC)[C@H](C)O4)O3)O2)[C@H](C)C[C@@H]1C`, the logP is reported as 1.77. Compound `CC[C@@H](C(=O)[C@@H](C)[C@@H](O)[C@H](C)[C@@H]1O[C@@H]([C@@H](CC)C(=O)O)CC[C@@H]1C)[C@H]1O[C@]2(C=C[C@@H](O)[C@]3(CC[C@@](C)([C@H]4CC[C@](O)(CC)[C@H](C)O4)O3)O2)[C@H](C)C[C@@H]1C` [SALINOMYCIN] has a logP of 2.21.
